From PubChem BioAssay AID328 (DTP/NCI, 2004)
Values joined by “and” are separate entries in the source; they are usually repeats but may differ in a detail not shown here. Equal entries are not always repeated. Inconclusive results and toxic doses are left out.

System: BDF1 mice, P388 leukemia ip, median survival T/C
Assay: NCI In Vivo Anticancer Drug Screen. Data for tumor model P388 Leukemia (intraperitoneal) in B6D2F1 (BDF1) mice
Conditions: endpoint: median survival time, higher = longer survival
Outline: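 Vehicle-dosed animals serve as the reference; survival of compound-dosed, tumour-implanted mice is divided by it.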

[1] = dose: 50.0 mg/kg/injection, schedule: Q01DX009 (ip), vehicle: saline with Tween-80
[2] = dose: 100.0 mg/kg/injection, schedule: Q01DX009 (ip), vehicle: saline with Tween-80
[3] = dose: 100.0 mg/kg/injection, schedule: Q04DX003 (ip), vehicle: Klucel (hydroxypropylcellulose) (HPC)
[4] = dose: 200.0 mg/kg/injection, schedule: Q04DX003 (ip), vehicle: Klucel (hydroxypropylcellulose) (HPC)

Compound: CCCCc1ccc(NC(=O)N(CCCl)N=O)cc1
- T/C (dose: 2.5 mg/kg/injection, schedule: Q01DX009 (ip), vehicle: Klucel (hydroxypropylcellulose) (HPC)): 160 % of control
- T/C (dose: 2.5 mg/kg/injection, schedule: Q04DX003 (ip), vehicle: Klucel (hydroxypropylcellulose) (HPC)): 175 % of control
- T/C (dose: 4.0 mg/kg/injection, schedule: Q01DX009 (ip), vehicle: Klucel (hydroxypropylcellulose) (HPC)): 180 % of control
- T/C (dose: 4.0 mg/kg/injection, schedule: Q04DX003 (ip), vehicle: Klucel (hydroxypropylcellulose) (HPC)): 191 % of control
- T/C (dose: 8.0 mg/kg/injection, schedule: Q01DX009 (ip), vehicle: Klucel (hydroxypropylcellulose) (HPC)): 230 % of control
- T/C (dose: 8.0 mg/kg/injection, schedule: Q04DX003 (ip), vehicle: Klucel (hydroxypropylcellulose) (HPC)): 208 % of control
- T/C (dose: 10.0 mg/kg/injection, schedule: Q04DX003 (ip), vehicle: other): 172 % of control
- T/C (dose: 16.0 mg/kg/injection, schedule: Q01DX009 (ip), vehicle: Klucel (hydroxypropylcellulose) (HPC)): 225 % of control
- T/C (dose: 16.0 mg/kg/injection, schedule: Q04DX003 (ip), vehicle: Klucel (hydroxypropylcellulose) (HPC)): 233 % of control
- T/C (dose: 20.0 mg/kg/injection, schedule: Q04DX003 (ip), vehicle: other): 172 % of control
- T/C (dose: 32.0 mg/kg/injection, schedule: Q01DX009 (ip), vehicle: Klucel (hydroxypropylcellulose) (HPC)): 100 % of control
- T/C (dose: 66.0 mg/kg/injection, schedule: Q04DX003 (ip), vehicle: other): 222 % of control
- T/C (dose: 99.0 mg/kg/injection, schedule: Q04DX003 (ip), vehicle: other): 186 % of control
- T/C (dose: 150.0 mg/kg/injection, schedule: Q04DX003 (ip), vehicle: other): 254 % of control
- T/C (dose: 225.0 mg/kg/injection, schedule: Q04DX003 (ip), vehicle: other): 245 % of control

Compound: CCN1C=C/C(=C/c2cc3scc(-c4ccccc4)[n+]3c3ccccc23)c2ccccc21
- T/C (dose: 0.08 mg/kg/injection, schedule: Q01DX009 (ip), vehicle: saline): 100 % of control
- T/C (dose: 0.16 mg/kg/injection, schedule: Q01DX009 (ip), vehicle: saline): 108 % of control
- T/C (dose: 0.32 mg/kg/injection, schedule: Q01DX009 (ip), vehicle: saline): 120 % of control

Compound: CC1(C)N=C(N)N=C(N)N1c1ccc(OCCCNC(=O)Nc2cccc(S(=O)(=O)F)c2)c(Cl)c1
- T/C (dose: 25.0 mg/kg/injection, schedule: Q01DX009 (ip), vehicle: saline with Tween-80): 177 % of control
- T/C (dose: 25.0 mg/kg/injection, schedule: Q04DX003 (ip), vehicle: saline with Tween-80): 150 % of control
- T/C [1]: 200 % of control
- T/C (dose: 50.0 mg/kg/injection, schedule: Q04DX003 (ip), vehicle: saline with Tween-80): 150 % of control
- T/C (dose: 66.0 mg/kg/injection, schedule: Q01DX009 (ip), vehicle: saline with Tween-80): 177 % of control
- T/C [2]: 86 % of control and 213 % of control

Compound: N#CSCc1nc2ccc(Cl)cc2c(-c2ccccc2)[n+]1[O-]
- T/C [1]: 100 % of control
- T/C [2]: 114 % of control
- T/C (dose: 200.0 mg/kg/injection, schedule: Q01DX009 (ip), vehicle: saline with Tween-80): 114 % of control

Compound: CC(C)n1c2c([n+](C)c1/C=C/c1ccccc1)C(=O)c1ccccc1C2=O
- T/C (dose: 0.5 mg/kg/injection, schedule: Q01DX010 (ip), vehicle: saline): 109 % of control
- T/C (dose: 1.0 mg/kg/injection, schedule: Q01DX009 (ip), vehicle: Klucel (hydroxypropylcellulose) (HPC)): 105 % of control
- T/C (dose: 2.0 mg/kg/injection, schedule: Q01DX010 (ip), vehicle: saline): 122 % of control

Compound: O=C(NC1CCCCC1)OCC#CC#CCOC(=O)NC1CCCCC1
- T/C [3]: 95 % of control
- T/C [4]: 100 % of control

Compound: CN(Nc1c([N+](=O)[O-])cc([N+](=O)[O-])cc1[N+](=O)[O-])c1cccc2ccccc12
- T/C (dose: 25.0 mg/kg/injection, schedule: Q04DX003 (ip), vehicle: Klucel (hydroxypropylcellulose) (HPC)): 109 % of control
- T/C (dose: 50.0 mg/kg/injection, schedule: Q04DX003 (ip), vehicle: Klucel (hydroxypropylcellulose) (HPC)): 100 % of control
- T/C [3]: 100 % of control
- T/C [4]: 86 % of control
- T/C (dose: 400.0 mg/kg/injection, schedule: Q04DX003 (ip), vehicle: Klucel (hydroxypropylcellulose) (HPC)): 90 % of control

Compound: c1csc(C[N+]23CN4CN(CN(C4)C2)C3)c1
- T/C (dose: 100.0 mg/kg/injection, schedule: Q01DX009 (ip), vehicle: saline): 116 % of control
